Source: publication PMC9137622, “OPDAylation of Thiols of the Redox Regulatory Network In Vitro” (Antioxidants, 2022)
Values belong to the compound of their own block, whether it stands above or below them.

Assays:
GRX-C2 = biological target: T1, GRX-C2 (Arabidopsis thaliana, UniProt Q9FNE2); test: HED assay, NADPH oxidation at […] nm; format: biochemical; conditions: 2 mM GSH, 0.7 mM HED, 1 µM GR, 0.1 µM GRX, pH 7.5, RT
T1 construct: gene GRXC2

TRX-h5 [1] = biological target: T2, TRX-h5 (Arabidopsis thaliana, UniProt Q39241); test: HPLC depletion of free OPDA, mPEG-maleimide shift; format: binding; conditions: covalent; 200 µM OPDA, 50 or 100 µM reduced protein, pH 7.2, at least 2 h, RT
T2 construct: gene TRX5
T2 sequence (Q39241 1-118 limits assumed): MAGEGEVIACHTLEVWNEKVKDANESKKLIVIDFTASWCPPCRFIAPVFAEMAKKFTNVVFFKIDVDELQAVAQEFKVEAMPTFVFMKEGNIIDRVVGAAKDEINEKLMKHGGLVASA

TRX-h3 = biological target: T3, TRX-h3 (Arabidopsis thaliana, UniProt Q42403); test: coupled GPXL8 H2O2 reduction, NADPH oxidation at […] nm; format: biochemical; conditions: covalent; 20 µM reduced protein preincubated with 150 µM OPDA 1 h, then 0.25 µM in NTRA/GPXL8 assay, pH 7.5
T3 construct: gene TRX3
T3 sequence (Q42403 1-118 limits assumed): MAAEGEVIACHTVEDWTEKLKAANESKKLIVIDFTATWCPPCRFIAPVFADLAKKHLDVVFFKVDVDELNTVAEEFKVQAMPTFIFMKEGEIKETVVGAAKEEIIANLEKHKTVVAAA

TRX-m4 [2] = biological target: T4, TRX-m4 (Arabidopsis thaliana, UniProt Q9SEU6); test: HPLC depletion of free OPDA, mPEG-maleimide shift; format: binding; conditions: covalent; 200 µM OPDA, 50 or 100 µM reduced protein, pH 7.2, at least 2 h, RT
T4 construct: gene At3g15360; His-tagged, E. coli, Ni-NTA
T4 sequence (Q9SEU6 83-193): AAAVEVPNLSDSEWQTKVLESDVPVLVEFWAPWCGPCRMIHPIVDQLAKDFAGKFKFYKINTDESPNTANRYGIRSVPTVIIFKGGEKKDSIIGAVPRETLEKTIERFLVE

TRX-h5 [3] = biological target: T2, TRX-h5; test: coupled GPXL8 H2O2 reduction, NADPH oxidation at […] nm; format: biochemical; conditions: covalent; 20 µM reduced protein preincubated with 150 µM OPDA 1 h, then 0.25 µM in NTRA/GPXL8 assay, pH 7.5
TRX-f1 = biological target: T5, TRX-f1 (Arabidopsis thaliana, UniProt Q9XFH8); test: HPLC depletion of free OPDA, mPEG-maleimide shift; format: binding; conditions: covalent; 200 µM OPDA, 50 or 100 µM reduced protein, pH 7.2, at least 2 h, RT
T5 construct: gene At3g02730; His-tagged, E. coli, Ni-NTA
T5 sequence (Q9XFH8 58-178): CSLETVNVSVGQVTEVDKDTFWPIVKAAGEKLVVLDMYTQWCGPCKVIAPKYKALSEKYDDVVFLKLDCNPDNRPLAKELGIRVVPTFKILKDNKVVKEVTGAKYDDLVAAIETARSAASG

PRXIIB = biological target: T6, PRXIIB (Arabidopsis thaliana, UniProt Q9XEX2); test: coupled H2O2 reduction (GR/GSH/GRXC2), NADPH oxidation at […] nm; format: biochemical; conditions: 20 µM reduced PRXIIB preincubated with 150 µM OPDA 1 h, then 3 µM in assay, pH 7.5; weak effect
T6 sequence (Q9XEX2 1-162): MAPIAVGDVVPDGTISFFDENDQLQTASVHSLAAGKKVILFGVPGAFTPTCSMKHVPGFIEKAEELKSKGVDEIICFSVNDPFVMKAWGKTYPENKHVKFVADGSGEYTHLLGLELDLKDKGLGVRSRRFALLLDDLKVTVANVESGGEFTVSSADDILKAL

TRX-m4 [4] = biological target: T4, TRX-m4; test: coupled GPXL8 H2O2 reduction, NADPH oxidation at […] nm; format: biochemical; conditions: covalent; 20 µM reduced protein preincubated with 150 µM OPDA 1 h, then 5 µM in NTRA/GPXL8 assay, pH 7.5
GAPC2 = biological target: T7, GAPC2 (Arabidopsis thaliana, UniProt Q9FX54); test: NADH consumption at […] nm, PGK-coupled; format: biochemical; conditions: 8 mM 3-PGA, 4 mM ATP, 90 nM PGK, pH 7.8, RT
T7 construct: His10-tagged, E. coli, Ni-NTA
T7 sequence (Q9FX54 whole entry): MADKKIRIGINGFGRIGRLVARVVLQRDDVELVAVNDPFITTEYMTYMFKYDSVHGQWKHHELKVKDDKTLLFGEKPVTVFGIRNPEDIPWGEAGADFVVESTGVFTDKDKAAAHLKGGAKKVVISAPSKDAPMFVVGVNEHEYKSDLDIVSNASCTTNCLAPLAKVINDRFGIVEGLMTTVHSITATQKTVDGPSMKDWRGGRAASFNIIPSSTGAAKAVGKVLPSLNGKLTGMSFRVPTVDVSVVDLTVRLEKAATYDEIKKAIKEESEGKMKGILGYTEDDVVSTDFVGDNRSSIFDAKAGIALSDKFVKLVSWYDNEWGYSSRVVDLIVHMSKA

T1 sequence (Q9FNE2 whole entry): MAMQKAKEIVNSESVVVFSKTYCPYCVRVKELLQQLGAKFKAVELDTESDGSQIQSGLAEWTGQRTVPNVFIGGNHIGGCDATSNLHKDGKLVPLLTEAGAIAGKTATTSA

Structure (SMILES): OCCSSCCO [HED, hydroxyethyldisulfide]
- HED assay, NADPH oxidation at 340 nm (GRX-C2): HED assay to determine GRX-dependent reduction activity

- inhibition (TRX-h3): ~ 80%
- inhibition (TRX-h5 [3]): ~ 80%
- inhibition (TRX-m4 [4]): ~ 60%
Structure (SMILES): CC/C=C\C[C@@H]1C(=O)C=C[C@@H]1CCCCCCCC(=O)O [OPDA, cis-(+)-12-oxophytodienoic acid]
- HPLC depletion of free OPDA, mPEG-maleimide shift (TRX-h5 [1]): two thiols reacted with OPDA in the case of TRX-h3 and TRX-h5
- HPLC depletion of free OPDA, mPEG-maleimide shift (TRX-m4 [2]): three thiols in the case of TRX-f1 and TRX-m4
- HPLC depletion of free OPDA, mPEG-maleimide shift (TRX-f1): three thiols in the case of TRX-f1 and TRX-m4
- inhibition (PRXIIB): OPDA seems to act directly on PRXIIB at a low level

Structure (SMILES): NC(=O)C1=CN([C@@H]2O[C@H](COP(=O)(O)OP(=O)(O)OC[C@H]3O[C@@H](n4cnc5c(N)ncnc54)[C@H](O)[C@@H]3O)[C@@H](O)[C@H]2O)C=CC1 [NADH]
- NADH consumption at 340 nm, PGK-coupled (GAPC2): coupled activity of phosphoglycerate kinase and GAPDH was measured as consumption of NADH
